In paper PMC8832557 (Cell Metabolism, 2022):
Read-outs that look alike come from different tables or passages of the source.

Assays:
[1] = target: T1, ACE2 (angiotensin-I converting enzyme 2) (Homo sapiens, UniProt Q9BYF1); experiment: SPR; type: binding
[2] = target: T1, ACE2 (angiotensin-I converting enzyme 2); experiment: SPR; type: binding; remark: listed apart in the source

T1 sequence (Q9BYF1 18-805): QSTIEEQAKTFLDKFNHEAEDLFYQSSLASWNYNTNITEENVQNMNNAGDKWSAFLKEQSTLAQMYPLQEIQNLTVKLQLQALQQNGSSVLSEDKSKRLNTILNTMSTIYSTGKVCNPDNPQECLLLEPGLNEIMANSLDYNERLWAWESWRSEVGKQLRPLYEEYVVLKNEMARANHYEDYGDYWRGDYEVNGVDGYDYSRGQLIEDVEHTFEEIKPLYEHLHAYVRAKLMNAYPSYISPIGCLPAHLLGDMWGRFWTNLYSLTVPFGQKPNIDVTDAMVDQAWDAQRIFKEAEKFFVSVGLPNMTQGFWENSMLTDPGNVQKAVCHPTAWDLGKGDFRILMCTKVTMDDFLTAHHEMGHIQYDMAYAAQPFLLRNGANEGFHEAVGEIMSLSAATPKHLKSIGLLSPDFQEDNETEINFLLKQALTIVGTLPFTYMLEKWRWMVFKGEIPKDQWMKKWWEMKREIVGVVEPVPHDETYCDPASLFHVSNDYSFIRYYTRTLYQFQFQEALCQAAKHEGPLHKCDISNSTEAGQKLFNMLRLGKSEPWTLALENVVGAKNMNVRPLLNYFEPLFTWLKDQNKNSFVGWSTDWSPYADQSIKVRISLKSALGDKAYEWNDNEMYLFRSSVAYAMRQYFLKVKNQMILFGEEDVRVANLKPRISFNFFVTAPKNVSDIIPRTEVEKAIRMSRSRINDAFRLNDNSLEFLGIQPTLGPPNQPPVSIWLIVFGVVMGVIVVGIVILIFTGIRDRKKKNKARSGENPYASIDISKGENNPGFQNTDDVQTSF

N=C(N)c1ccc(/N=N/Nc2ccc(C(=N)N)cc2)cc1 [DIZE, diminazene aceturate]
Kd [1]: 4.9 µM

C[C@]1(OC(=O)/C=C/c2ccccc2)C[C@@H](O)[C@]2(O)C=CO[C@@H](O[C@@H]3O[C@H](CO)[C@@H](O)[C@H](O)[C@H]3O)[C@@H]21 [Har, harpagoside]
Kd [2]: 86.1 µM

Cc1ccc(NC(=O)c2ccc(CN3CCN(C)CC3)cc2)cc1Nc1nccc(-c2cccnc2)n1 [Ima, imatinib]
Kd [2]: 12.7 µM

CC(=O)/N=c1/sc(S(N)(=O)=O)nn1C [Met, methazolamide]
Kd [2]: 70 µM
